Test results published in ChEMBL document CHEMBL3396979, “Synthesis and characterization of 1'-C-cyano-2'-fluoro-2'-C-methyl pyrimidine nucleosides as HCV polymerase inhibitors” (Bioorg Med Chem Lett, 2015).

Assays:
Hepatitis C virus [1] = assay: Antiviral activity against HCV genotype 1a infected in human HuH7 cells by replicon based assay; type: functional, cell-based, Hepacivirus hominis; conditions: subtype 1a, Huh-7
Hepatitis C virus [2] = assay: Antiviral activity against HCV genotype 1b infected in human HuH7 cells by replicon based assay; type: functional, cell-based, Hepacivirus hominis; conditions: Huh-7
[3] = Inhibition of HCV genotype 1b NS5B RNA dependent RNA polymerase assessed as reduction in triphosphate activity; design: species or system Hepatitis C virus subtype 1b
[4] = Inhibition of HCV genotype 2a NS5B RNA dependent RNA polymerase assessed as reduction in triphosphate activity; design: species or system Hepatitis C virus subtype 2a
[5] = Inhibition of HCV genotype 3a NS5B RNA dependent RNA polymerase assessed as reduction in triphosphate activity; design: species or system Hepatitis C virus subtype 3a
[6] = Inhibition of HCV genotype 4a NS5B RNA dependent RNA polymerase assessed as reduction in triphosphate activity; design: species or system Hepatitis C virus subtype 4a
Hepatitis C virus [7] = assay: Antiviral activity against HCV genotype 2a infected in human HuH7 cells by replicon based assay; type: functional, cell-based, Hepacivirus hominis; conditions: Huh-7
[8] = Cytotoxicity against human HuH7 cells; type: cell-based, Huh-7
[9] = Drug metabolism in human HuH7 cells bearing HCV replicons assessed as formation of triphosphates at 10 uM after 72 hrs by liquid chromatography coupled to triple quadrupole mass spectrometry; type: ADME, cell-based; conditions: huh-7, 72 h
[10] = Drug metabolism in human HuH7 cells bearing HCV replicons assessed as formation of uridine-type triphosphates at 10 uM after 72 hrs by liquid chromatography coupled to triple quadrupole mass spectrometry; type: ADME, cell-based; conditions: huh-7, 72 h

C[C@@]1(O)[C@H](O)[C@@H](CO)O[C@@]1(C#N)n1ccc(=O)[nH]c1=O
EC50 (Hepatitis C virus [1]): > 89 µM | EC50 (Hepatitis C virus [2]): > 89 µM | IC50 ([3]; read-out: IC50): 27 µM

C[C@@]1(F)[C@H](O)[C@@H](CO)O[C@@]1(C#N)n1ccc(N)nc1=O
EC50 (Hepatitis C virus [1]): > 89 µM | EC50 (Hepatitis C virus [2]): > 89 µM | IC50 ([3]; read-out: IC50): 57 µM

C[C@@]1(F)[C@H](O)[C@@H](CO)O[C@H]1n1ccc(=O)[nH]c1=O
EC50 (Hepatitis C virus [1]): > 89 µM | EC50 (Hepatitis C virus [2]): > 89 µM | IC50 ([3]; read-out: IC50): 0.7 µM | IC50 [4]: 700 nM | IC50 [5]: 700 nM | IC50 [6]: 700 nM

C[C@@]1(F)[C@H](O)[C@@H](CO)O[C@H]1n1ccc(N)nc1=O
EC50 (Hepatitis C virus [1]): 0.6 µM | EC50 (Hepatitis C virus [2]): 2.3 µM | Ki [3]: 60 nM

C[C@@]1(F)[C@H](O)[C@@H](CO)O[C@@]1(C#N)n1ccc(=O)[nH]c1=O
EC50 (Hepatitis C virus [1]): > 89 µM | EC50 (Hepatitis C virus [2]): > 89 µM | IC50 [3]: Not Active

C[C@@]1(O)[C@H](O)[C@@H](CO)O[C@H]1n1ccc(N)nc1=O
IC50 ([3]; read-out: IC50): 1.7 µM

CC(C)OC(=O)[C@H](C)N[P@](=O)(OC[C@H]1O[C@@](C#N)(n2ccc(N)nc2=O)[C@](C)(F)[C@@H]1O)Oc1ccccc1
EC50 (Hepatitis C virus [1]): 2.9 µM | EC50 (Hepatitis C virus [2]): 17.6 µM | EC50 (Hepatitis C virus [7]): 2300 nM | CC50 [8]: > 89 µM | Drug metabolism [9]: metabolite_detected | Drug metabolism [10]: metabolite_notdetected

C[C@@]1(O)[C@H](O)[C@@H](CO)O[C@@]1(C#N)n1ccc(N)nc1=O
EC50 (Hepatitis C virus [1]): 76 µM | EC50 (Hepatitis C virus [2]): > 89 µM | IC50 ([3]; read-out: IC50): 17.7 µM

C[C@@]1(O)[C@H](O)[C@@H](CO)O[C@H]1n1ccc(=O)[nH]c1=O
EC50 (Hepatitis C virus [2]): 13.1 µM | IC50 ([3]; read-out: IC50): 1.9 µM

CC(C)OC(=O)[C@H](C)N[P@](=O)(OC[C@H]1O[C@@](C#N)(n2ccc(=O)[nH]c2=O)[C@](C)(F)[C@@H]1O)Oc1ccccc1
EC50 (Hepatitis C virus [2]): 63.5 µM | EC50 (Hepatitis C virus [7]): > 88000 nM | CC50 [8]: > 89 µM | Drug metabolism [9]: metabolite_detected
